In ChEMBL document CHEMBL1909294, “Translating clinical findings into knowledge in drug safety evaluation--drug induced liver injury prediction system (DILIps)” (PLoS Comput Biol, 2011):

Assays:
Hepatotoxicity [1] = system: Hepatotoxicity;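 for HepSE bilirubinemia: bilirubinemia hepatic side effect score drawn from the DILIps training data, a prediction system for drug-induced liver injury; call rule not given here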;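 for HepSE cholecystitis: Cholecystitis-related hepatic side effect score drawn from the DILIps (drug-induced liver injury prediction) training data set; call rule not given here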;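 for HepSE cholelithiasis: hepatic side effect score for cholelithiasis, drawn from the DILIps training data for predicting drug-induced liver injury; call rule not given here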;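 for HepSE cirrhosis: cirrhosis hepatic side effect score taken from the DILIps (drug-induced liver injury prediction) training set; call rule not given here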;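 for HepSE elevated liver function tests: hepatic side effect score for raised liver function tests, as recorded in the DILIps training set used for predicting drug-induced liver injury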; for HepSE hepatic failure: call rule not given here; for HepSE liver disease: call rule not given here
Hepatotoxicity [2] = system: Hepatotoxicity; remark: listed apart in the source;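 for HepSE bilirubinemia: bilirubinemia hepatic side effect score drawn from the DILIps training data, a prediction system for drug-induced liver injury; call rule not given here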;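 for HepSE cholecystitis: Cholecystitis-related hepatic side effect score drawn from the DILIps (drug-induced liver injury prediction) training data set; call rule not given here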;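 for HepSE cholelithiasis: hepatic side effect score for cholelithiasis, drawn from the DILIps training data for predicting drug-induced liver injury; call rule not given here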;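 for HepSE cirrhosis: cirrhosis hepatic side effect score taken from the DILIps (drug-induced liver injury prediction) training set; call rule not given here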;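 for HepSE elevated liver function tests: hepatic side effect score for raised liver function tests, as recorded in the DILIps training set used for predicting drug-induced liver injury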; for HepSE hepatic failure: call rule not given here; for HepSE liver disease: call rule not given here
Hepatotoxicity [3] = system: Hepatotoxicity; remark: listed apart in the source;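 for HepSE bilirubinemia: bilirubinemia hepatic side effect score drawn from the DILIps training data, a prediction system for drug-induced liver injury; call rule not given here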;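 for HepSE cholecystitis: Cholecystitis-related hepatic side effect score drawn from the DILIps (drug-induced liver injury prediction) training data set; call rule not given here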;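 for HepSE cholelithiasis: hepatic side effect score for cholelithiasis, drawn from the DILIps training data for predicting drug-induced liver injury; call rule not given here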;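 for HepSE cirrhosis: cirrhosis hepatic side effect score taken from the DILIps (drug-induced liver injury prediction) training set; call rule not given here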;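 for HepSE elevated liver function tests: hepatic side effect score for raised liver function tests, as recorded in the DILIps training set used for predicting drug-induced liver injury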; for HepSE hepatic failure: call rule not given here; for HepSE liver disease: call rule not given here
Hepatotoxicity [4] = system: Hepatotoxicity; remark: listed apart in the source;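 for HepSE bilirubinemia: bilirubinemia hepatic side effect score drawn from the DILIps training data, a prediction system for drug-induced liver injury; call rule not given here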;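 for HepSE cholecystitis: Cholecystitis-related hepatic side effect score drawn from the DILIps (drug-induced liver injury prediction) training data set; call rule not given here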;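 for HepSE cholelithiasis: hepatic side effect score for cholelithiasis, drawn from the DILIps training data for predicting drug-induced liver injury; call rule not given here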;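 for HepSE cirrhosis: cirrhosis hepatic side effect score taken from the DILIps (drug-induced liver injury prediction) training set; call rule not given here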;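 for HepSE elevated liver function tests: hepatic side effect score for raised liver function tests, as recorded in the DILIps training set used for predicting drug-induced liver injury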; for HepSE hepatic failure: call rule not given here; for HepSE liver disease: call rule not given here
Hepatotoxicity [5] = system: Hepatotoxicity; remark: listed apart in the source; for HepSE hepatic failure: call rule not given here
Hepatotoxicity [6] = system: Hepatotoxicity; remark: listed apart in the source; for HepSE hepatic failure: call rule not given here
Hepatotoxicity [7] = system: Hepatotoxicity; remark: listed apart in the source
Hepatotoxicity [8] = system: Hepatotoxicity; remark: listed apart in the source
Hepatotoxicity [9] = system: Hepatotoxicity; remark: listed apart in the source
Hepatotoxicity [10] = system: Hepatotoxicity; remark: listed apart in the source
Hepatotoxicity [11] = system: Hepatotoxicity; remark: listed apart in the source
Hepatotoxicity [12] = system: Hepatotoxicity; remark: listed apart in the source
Hepatotoxicity [13] = system: Hepatotoxicity; remark: listed apart in the source
Hepatotoxicity [14] = system: Hepatotoxicity; remark: listed apart in the source

| Structure (SMILES) | HepSE_cholelithiasis (Hepatotoxicity [1]) | HepSE_liver fatty (Hepatotoxicity [2]) | HepSE_bilirubinemia (Hepatotoxicity [3]) | HepSE_hepatic failure (Hepatotoxicity [4]) | HepSE_cholecystitis (Hepatotoxicity [5]) | HepSE_elevated liver function tests (Hepatotoxicity [6]) | HepSE_cirrhosis (Hepatotoxicity [7]) | HepSE_liver disease (Hepatotoxicity [8]) | HepSE_liver function tests abnormal (Hepatotoxicity [9]) | HepSE_jaundice (Hepatotoxicity [10]) | HepSE_hepatic necrosis (Hepatotoxicity [11]) | HepSE_hepatomegaly (Hepatotoxicity [12]) | HepSE_Combined Scores (Hepatotoxicity [13]) | HepSE_hepatitis (Hepatotoxicity [14]) | further results |
| --- | --- | --- | --- | --- | --- | --- | --- | --- | --- | --- | --- | --- | --- | --- | --- |
| CN[C@@H]1[C@H](O)[C@H](NC)[C@H]2O[C@@]3(O)C(=O)C[C@@H](C)O[C@H]3O[C@@H]2[C@H]1O [SPECTINOMYCIN] | 0 | 0 | 0 | 0 | 0 | 0 | 0 | 0 | 0 | 0 | 0 | 0 | 0 | 0 |  |
| CC(=O)S[C@@H]1CC2=CC(=O)CC[C@]2(C)[C@H]2CC[C@@]3(C)[C@@H](CC[C@@]34CCC(=O)O4)[C@H]12 [SPIRONOLACTONE] | 0 | 0 | 0 | 0 | 0 | 0 | 0 | 0 | 0 | 0 | 0 | 0 | 0 | 0 |  |
| Cc1cn([C@H]2C=C[C@@H](CO)O2)c(=O)[nH]c1=O [STAVUDINE] | 0 | 1 | 1 | 1 | 0 | 0 | 0 | 1 | 0 | 0 | 0 | 0 | 5 | 1 |  |
| [H]/N=C(/N)N[C@H]1[C@H](O)[C@@H](O)[C@H](O[C@@H]2O[C@@H](C)[C@](O)(C=O)[C@H]2O[C@@H]2O[C@@H](CO)[C@H](O)[C@@H](O)[C@@H]2NC)[C@@H](N/C(N)=N\[H])[C@@H]1O [STREPTOMYCIN] |  |  |  |  |  |  |  |  |  |  |  |  |  |  | HepSE_cholelithiasis (Hepatotoxicity [1]; Liver): 0; HepSE_liver fatty (Hepatotoxicity [2]; Liver): 0; HepSE_bilirubinemia (Hepatotoxicity [3]; Liver): 0; HepSE_hepatic failure (Hepatotoxicity [4]; Liver): 0; HepSE_cholecystitis (Hepatotoxicity [5]; Liver): 0; HepSE_elevated liver function tests (Hepatotoxicity [6]; Liver): 0; HepSE_cirrhosis (Hepatotoxicity [7]; Liver): 0; HepSE_liver disease (Hepatotoxicity [8]; Liver): 0; HepSE_liver function tests abnormal (Hepatotoxicity [9]; Liver): 0; HepSE_jaundice (Hepatotoxicity [10]; Liver): 0; HepSE_hepatic necrosis (Hepatotoxicity [11]; Liver): 0; HepSE_hepatomegaly (Hepatotoxicity [12]; Liver): 0; HepSE_Combined Scores (Hepatotoxicity [13]; Liver): 0; HepSE_hepatitis (Hepatotoxicity [14]; Liver): 0 |
| CN(N=O)C(=O)N[C@@H](C=O)[C@@H](O)[C@H](O)[C@H](O)CO [STREPTOZOCIN] | 0 | 0 | 0 | 0 | 0 | 0 | 0 | 0 | 0 | 0 | 0 | 0 | 0 | 0 |  |
| Clc1ccc(CSC(Cn2ccnc2)c2ccc(Cl)cc2Cl)cc1 (configuration not stated) [SULCONAZOLE] | 0 | 0 | 0 | 0 | 0 |  | 0 | 0 |  | 0 | 0 | 0 | 0 | 0 | HepSE_elevated liver function tests (Hepatotoxicity [6]; Liver): 0; HepSE_liver function tests abnormal (Hepatotoxicity [9]; Liver): 0 |
| CC(=O)NS(=O)(=O)c1ccc(N)cc1 [SULFACETAMIDE] | 0 | 0 | 0 | 0 | 0 | 0 | 0 | 0 | 0 | 0 | 1 | 0 | 1 | 0 |  |
| O=C(O)c1cc(/N=N/c2ccc(S(=O)(=O)Nc3ccccn3)cc2)ccc1O [SULFASALAZINE] | 0 | 0 | 0 | 1 | 0 | 1 | 1 | 0 | 1 | 1 | 1 | 0 | 7 | 1 |  |
